Results reported in ChEMBL document CHEMBL5329169, “Recent developments in membrane targeting antifungal agents to mitigate antifungal resistance” (2023).
≈ marks a conversion by molar mass, not a printed value.

How the values were obtained:
Format in all cases: functional
Candida albicans [1] = test: Antifungal activity against Candida albicans ATCC 10231 assessed as fungal growth inhibition measured after 24 hrs by two fold serial dilution technique
Cryptococcus neoformans = test: Antifungal activity against Cryptococcus neoformans H99 assessed as fungal growth inhibition measured after 20 hrs by microplate assay
Candida albicans [2] = test: Antifungal activity against Candida albicans SC5314 assessed as fungal growth inhibition measured after 20 hrs by microplate assay
Candida albicans [3] = test: Antifungal activity against Candida albicans assessed as fungal growth inhibition measured after 48 hrs by broth microdilution assay
Candida albicans [4] = test: Antifungal activity against Candida albicans SC5314 assessed as log reduction in fungal growth at 2x MIC measured after 6 hrs

Question: For CC[n+]1ccn(CCC[C@@H](C)[C@H]2CC[C@H]3[C@@H]4CC[C@@H]5C[C@H](O)CC[C@]5(C)[C@H]4CC[C@]23C)c1.[I-], which MIC80 (Candida albicans [1]) is on record?
Answer: Its MIC80 is 0.5 µg/mL.

Question: What does the source list for CCCCCCCCCCN(Cc1cccc2ccccc12)C(=O)C(N)CCCCN (stereo unspecified)?
Answer: MIC80 (Cryptococcus neoformans): 3.1 µg/mL (≈ 7.28 µM); MIC80 (Candida albicans [2]): 12.5 µg/mL (≈ 29.4 µM)

Question: For C[C@H](CCCn1cc[n+](C)c1)[C@H]1CC[C@H]2[C@@H]3CC[C@@H]4C[C@H](O)CC[C@]4(C)[C@H]3CC[C@]12C.[I-], which MIC80 (Candida albicans [1]) is on record?
Answer: The MIC80 was 0.25 µg/mL.

Question: With C[C@H](CCC(=O)O)[C@H]1CC[C@H]2[C@@H]3CC[C@@H]4C[C@H](O)CC[C@]4(C)[C@H]3CC[C@]12C [LITHOCHOLIC ACID] as the molecule, how does the MIC80 (Candida albicans [3]) read?
Answer: The MIC80 was 3.12 µg/mL (≈ 8.29 µM).

Question: With H-GIWKKWIKKWLKKLKNLF-NH2 as the molecule, how does the Activity (Candida albicans [4]) read?
Answer: Its Activity is 5.55 log reduction.
